Assay results: US12408664B2 (priority 2018, dated 2025)
Entries after “also recorded” stand apart in the source; their conditions may differ. Read-outs that look alike come from different tables or passages of the source.

Key:
S. homoeocarpa [1] = test: Plug transfer to PDA plates without calcium propionate (fungistatic or fungicidal); assay type: cell-based, Scerotinia homoeocarpa
G. graminis [2] = test: Established liquid cultures, two days calcium propionate then washout; assay type: cell-based, Gaeumannomyces graminis
Procedure: To further examine the impact of calcium propionate on established liquid cultures, MEB was inoculated by plug transfer and cultures were allowed to grow for one to six days. Following this, calcium propionate was added to active cultures to a final concentration of 1%, 2%, or 5% (w/v); control cultures had no calcium propionate. Calcium propionate was then added to established one to six day old cultures and cultures were allowed to grow in the presence of calcium propionate for two days, after which, calcium propionate was washed out and cultures were returned to MEB only. Growth following calcium propionate washout was recorded over 14 days.

M. poae [3] = assay type: cell-based, Magnaporthe poae; details: MEB with 1%, 2%, 5% or 10% (w/v) calcium propionate; five days
S. homoeocarpa [4] = test: New inoculants in MEB liquid culture amended with calcium propionate; assay type: cell-based, Scerotinia homoeocarpa; details: MEB with 1, 2, 5 and 10% (w/v) calcium propionate; five days
Procedure: To examine the effective dose range in liquid culture, malt extract broth (MEB) was prepared and amended with calcium propionate at concentrations of 1, 2, 5 and 10% (w/v). Unamended MEB was used as a control for growth. Each of the four microbes identified in Example 1 was tested twice by inoculating MEB using agarose plugs from luxuriant cultures. Growth was observed over five days. In each microbe examined, visible growth in liquid culture was apparent by day 2 following inoculation with well-established growth by 4 days in the absence of calcium propionate.

S. homoeocarpa [5] = test: Zone of inhibition assay on PDA plates; assay type: cell-based, Scerotinia homoeocarpa
Procedure: To test the efficacy of calcium propionate (CaP) against the four microbes listed above, zone of inhibition assays were performed. Wells were bored in potato dextrose agarose (PDA) plates then amended with […] calcium propionate at concentrations of 0.1%, 0.2%, 0.3%, 0.4%, and 0.5% (w/v). Control plates were amended with […] dH2O. Plates were inoculated using plugs from active cultures. Growth patterns were observed over seven days. Representative results with M. poae are shown at three days following inoculation (FIG. 1A) and seven days following inoculation (FIG. 1B).
The zone of inhibition assays described in Example 1 were performed using calcium propionate doses of 0.5%, 1%, 2%, 3%, and 4% (w/v). Growth diameter was recorded at 2, 5, and 7 days post inoculation. The data shown in Table 1 represent the average±standard deviation (SD) of two replicate plates for each strain tested.
Zone of inhibition assays using PDA plates amended with 5-12% (w/v) calcium propionate were performed as described above. As a control, plates were amended with a composition comprising propiconazole, a commonly used fungicidal treatment for microbe infection of turfgrass, sold under the trademark Banner MaxxII®. Growth diameter was recorded for 13 days post inoculation. The data shown in Table 2 represent the average±standard deviation (SD) of three replicate plates for each strain tested. Inoculants of S. homoeocarpa, M. poae, and R. solani generally grow to luxuriant culture, covering the entire surface of the plate (8.5 cm growth) in 7 days.

Fusarium oxysporum = test: Golf Course 2: infected live turfgrass, visual detection of Fusarium oxysporum infection; assay type: in vivo; details: 3-4 grams per square meter every 10 days, 5% (w/v) solution sprayed; 10 days following initial application
Procedure: Calcium propionate was dissolved in water to form a 5% (w/v) solution. […] The turfgrass was comprised primarily of Agrostis capillaris. The calcium propionate 5% (w/v) solution was sprayed onto the turfgrass at a concentration of 3-4 grams per square meter every 10 days.

turfgrass = test: Golf Course 1: appearance of treated turfgrass; assay type: in vivo, Festuca rubra; details: after 10 days
Procedure: Calcium propionate was dissolved in water to form a 5% (w/v) solution. […] Zone 1 was left untreated, Zone 2 was treated with 2.5 grams calcium propionate per square meter, Zone 3 was treated with 5 grams of calcium propionate per square meter, and Zone 4 was treated with 10 grams of calcium propionate per square meter. The turfgrass was comprised primarily of Festuca rubra. The calcium propionate 5% (w/v) solution was sprayed onto the turfgrass.
The four zones were visually inspected for dollar spot after 10 days. […] In contrast, dollar spot could, still be visually detected in untreated Zone 1.

M. poae [6] = assay type: cell-based, Magnaporthe poae
G. graminis [7] = test: Growth on PDA with calcium propionate fully integrated into the agarose; assay type: cell-based, Gaeumannomyces graminis
Procedure: In contrast to the zone of inhibition assays described in Examples 1-3, for this experiment, PDA with calcium propionate fully integrated into the agarose was prepared. Thus, inoculants were grown on plates in which calcium propionate was incorporated at a uniform concentration throughout the plate, rather than the zones of concentration established by simple diffusion in the zone of inhibition assays. The PDA plates were amended with 5, 7.5, 10, or 12% (w/v) calcium propionate. Growth diameter was recorded for 15 days post inoculation. The data shown in Table 3 represent the results of single plate tests.

[8] = 2-4% (w/v) calcium propionate, repeat, data not shown
[9] = 5-12% (w/v) calcium propionate, day 2, average ± SD of three plates
[10] = 5-12% (w/v) calcium propionate, day 3, average ± SD of three plates
[11] = 5-12% (w/v) calcium propionate, day 6, average ± SD of three plates
[12] = 5-12% (w/v) calcium propionate, day 7, average ± SD of three plates
[13] = 5-12% (w/v) calcium propionate, day 10, average ± SD of three plates
[14] = 5-12% (w/v) calcium propionate, day 13, average ± SD of three plates
[15] = wells 0.1-0.5% (w/v) calcium propionate, observed over seven days
[16] = wells 0.5-4% (w/v) calcium propionate, day 2, average ± SD of two plates
[17] = wells 0.5-4% (w/v) calcium propionate, day 5, average ± SD of two plates
[18] = wells 0.5-4% (w/v) calcium propionate, day 7, average ± SD of two plates
[19] = wells 0.5-4% (w/v) calcium propionate, seven day growth period

CCC(=O)[O-].CCC(=O)[O-].[Ca+2] [calcium propionate]
fungistatic or fungicidal effect, S. homoeocarpa (S. homoeocarpa [1]; 5% (w/v) calcium propionate): fungicidal effect
growth on unamended PDA after plug transfer, S. homoeocarpa (S. homoeocarpa [1]; plugs initially grown on 5, 7.5, 10 or 12% (w/v) calcium propionate, observed 14 days): No growth was seen
growth while calcium propionate was present, G. graminis (G. graminis [2]; 1%, 2% or 5% (w/v), established one to six day old cultures, two days): growth was inhibited
growth three days following removal of calcium propionate, G. graminis (G. graminis [2]; all concentrations tested (1-5% w/v), data not shown): continued growth inhibition
growth up to two weeks following calcium propionate removal, G. graminis (G. graminis [2]; concentrations as low as 1% (w/v)): no growth was observed
growth of disrupted culture, M. poae (M. poae [3]): No growth was observed
growth in liquid culture, S. homoeocarpa (S. homoeocarpa [4]): no growth was observed
growth inhibition in repeated experiments, S. homoeocarpa (S. homoeocarpa [5]; [8]): mixed
Growth, S. homeocarpa (S. homoeocarpa [5]; [9]): 2.8 ± 0.2 cm
Growth, S. homeocarpa (S. homoeocarpa [5]; [10]): 3.5 ± 0.3 cm
Growth, S. homeocarpa (S. homoeocarpa [5]; [11]): 3.8 ± 0.1 cm
Growth, S. homeocarpa (S. homoeocarpa [5]; [12]): 4.3 ± 0.3 cm
Growth, S. homeocarpa (S. homoeocarpa [5]; [13]): 6.2 ± 0.3 cm
Growth, S. homeocarpa (S. homoeocarpa [5]; [14]): 7.8 ± 0.6 cm
growth inhibition, S. homoeocarpa (S. homoeocarpa [5]; [15]): no growth inhibition was observed
Growth, S. homeocarpa (S. homoeocarpa [5]; [16]): 1.9 ± 0.3 cm
Growth, S. homeocarpa (S. homoeocarpa [5]; [17]): 4.5 ± 0.5 cm
Growth, S. homeocarpa (S. homoeocarpa [5]; [18]): 6.08±0.57 cm
Growth, S. homeocarpa (S. homoeocarpa [5]; wells 0.5-4% (w/v) calcium propionate, day 7, average ± SD of two plates, listed as Cap): 4.5 ± 0.6 cm
growth inhibition, S. homoeocarpa (S. homoeocarpa [5]; [19]): clear growth inhibition
visual detection of Fusarium oxysporum infection (Fusarium oxysporum): could no longer be visually detected
appearance of the turfgrass (turfgrass; Zone 2: 2.5 grams per square meter): appeared healthy
appearance of the turfgrass (turfgrass; Zone 3: 5 grams per square meter): appeared healthy
effect on the turfgrass (turfgrass; Zone 4: 10 grams per square meter): burning effect
growth inhibition in repeated experiments, M. poae (M. poae [6]; [8]): mixed
Growth, M. Poae (M. poae [6]; [9]): 1.1 ± 0.1 cm
Growth, M. Poae (M. poae [6]; [10]): 1.5 ± 0.2 cm
Growth, M. Poae (M. poae [6]; [11]): 2.1 ± 0.4 cm
Growth, M. Poae (M. poae [6]; [12]): 3.1±0.4 cm
Growth, M. Poae (M. poae [6]; [13]): 5.8 ± 0.7 cm
Growth, M. Poae (M. poae [6]; [14]): 8.2 ± 0.5 cm
growth inhibition, M. poae (M. poae [6]; [15]): no growth inhibition was observed
Growth, M. Poae (M. poae [6]; [16]): 1.5 ± 0.2 cm
Growth, M. Poae (M. poae [6]; [17]): 4.3 ± 0.1 cm
Growth, M. Poae (M. poae [6]; [18]): 6.9 ± 0.1 cm
growth inhibition, M. poae (M. poae [6]; [19]): clear growth inhibition; also recorded: inhibited to a similar degree
Growth, G. graminis (G. graminis [7]; PDA with 5% (w/v) calcium propionate, day 4, single plate): 0 cm
Growth, G. graminis (G. graminis [7]; PDA with 5% (w/v) calcium propionate, day 5, single plate): 0 cm
Growth, G. graminis (G. graminis [7]; PDA with 5% (w/v) calcium propionate, day 8, single plate): 0 cm
Growth, G. graminis (G. graminis [7]; PDA with 5% (w/v) calcium propionate, day 11, single plate): 0 cm
Growth, G. graminis (G. graminis [7]; PDA with 5% (w/v) calcium propionate, day 15, single plate): 0 cm
Growth, G. graminis (G. graminis [7]; PDA with 7.5% (w/v) calcium propionate, day 4, single plate): 0 cm
Growth, G. graminis (G. graminis [7]; PDA with 7.5% (w/v) calcium propionate, day 5, single plate): 0 cm
Growth, G. graminis (G. graminis [7]; PDA with 7.5% (w/v) calcium propionate, day 8, single plate): 0 cm
Growth, G. graminis (G. graminis [7]; PDA with 7.5% (w/v) calcium propionate, day 11, single plate): 0 cm
Growth, G. graminis (G. graminis [7]; PDA with 7.5% (w/v) calcium propionate, day 15, single plate): 0 cm
Growth, G. graminis (G. graminis [7]; PDA with 10% (w/v) calcium propionate, day 4, single plate): 0 cm
Growth, G. graminis (G. graminis [7]; PDA with 10% (w/v) calcium propionate, day 5, single plate): 0 cm
Growth, G. graminis (G. graminis [7]; PDA with 10% (w/v) calcium propionate, day 8, single plate): 0 cm
Growth, G. graminis (G. graminis [7]; PDA with 10% (w/v) calcium propionate, day 11, single plate): 0 cm
Growth, G. graminis (G. graminis [7]; PDA with 10% (w/v) calcium propionate, day 15, single plate): 0 cm
Growth, G. graminis (G. graminis [7]; PDA with 12% (w/v) calcium propionate, day 4, single plate): 0 cm
Growth, G. graminis (G. graminis [7]; PDA with 12% (w/v) calcium propionate, day 5, single plate): 0 cm
Growth, G. graminis (G. graminis [7]; PDA with 12% (w/v) calcium propionate, day 8, single plate): 0 cm
Growth, G. graminis (G. graminis [7]; PDA with 12% (w/v) calcium propionate, day 11, single plate): 0 cm
Growth, G. graminis (G. graminis [7]; PDA with 12% (w/v) calcium propionate, day 15, single plate): 0 cm
Growth, G. graminis (G. graminis [7]; any of the concentrations tested (5, 7.5, 10, 12% w/v), 15 days): no growth
